Reference: article PMC10222203 (Pharmaceutics, 2023)
Where “and” joins values, the source holds several entries; their conditions need not be identical. Equal entries are not always repeated. Where two headings read alike, the source gives them in different places.

Columns and labels:
in vivo = conditions: rat; for Half-life, t½ / half-life: 10 min intravenous infusion; for Half-life, t½ / AUC(0-inf) / Vd / clearance / half-life: 0.5 mg/kg; for AUC(0-inf) / Vd / clearance / half-life: iv; for half-life: t½
Protocol: Since previous pharmacokinetic data were extremely sparse, a pilot study was performed in rats (n = 2), and simulations were performed in Berkeley Madonna (version 8.3.18 for Windows, Berkeley, CA, USA), defining suitable dose and sampling intervals from the parameters obtained in the pilot study. The surgical implantation of catheters made of polyethylene (PE50) in the femoral vein and artery for dosing of peptide and sampling of blood, respectively, was performed the day before experiments under isoflurane anaesthesia. The animals were then housed in a CMA120 system (CMA, Solna, Sweden) for freely moving animals with ad libitum access to food and water. […] All samples were added to heparinized low-binding Eppendorf tubes. The blood samples were centrifuged, and plasma was transferred to new Eppendorf tubes and immediately frozen at −20 °C. After bioanalysis, the area under the plasma concentration–time curve (AUC) was determined by the trapezoidal rule with extrapolation to time infinity followed by calculation of systemic clearance (CL), apparent volume of distribution (Vd), and half-life (t½).

[1] = rat; for Kp at 4 h / Kp uu: in vivo; for Kp at 4 h / Total brain-to-plasma concentration ratio, Kp,brain: 0.5 mg/kg, 4 h infusion, total dose 0.5 mg/kg; for Kp at 4 h: Total brain-to-plasma concentration ratio, Kp,brain; for Kp at 4 h / Kp uu / Kp,uu,brain as percent equilibrating across the BBB / Total brain-to-plasma concentration ratio, Kp,brain / Unbound brain-to-plasma concentration ratio, Kp,uu,brain: steady state; for Kp uu: Unbound brain-to-plasma concentration ratio, Kp,uu,brain; for Kp uu / Unbound brain-to-plasma concentration ratio, Kp,uu,brain: Kp,brain/(fu,plasma × Vu,brain); for Total steady-state plasma concentration, Cplasma,ss: listed in Table S3
Protocol: In order to assure the accurate assessment of the extent of BBB transport and to minimize the use of animals, the achievement of steady-state conditions of total plasma concentration and equilibration across the blood–brain interface are critical. […] The infusion was administered through the catheter placed in the femoral vein. Blood (200 µL) was sampled from the catheter in the femoral artery at 1, 2, and 3 h into heparinized tubes to ensure that steady-state conditions were obtained in plasma. At 4 h, blood was sampled through heart puncture using EDTA vacutainers (BD, Eysins, Switzerland), and the whole brain was collected. The blood samples were centrifuged, and plasma was collected. All samples were immediately frozen on dry ice and then kept at −20 °C pending analysis.
The in vivo total brain-to-plasma concentration ratio, Kp,brain, was studied by measuring steady-state concentrations in plasma and the total amount in the brain (Equation (1)). (1) Kp,brain=Abrain/Cplasma where Abrain is the total amount of peptide in the brain calculated using Equation (2), including compensation for the residual cerebral blood, and Cplasma is total plasma concentration (µg/mL).
The unbound brain-to-plasma ratio, Kp,uu,brain, was calculated using Equation (13) according to the CMA [37], where Kp,brain is the total brain-to-plasma ratio, fu,plasma is the unbound fraction in plasma as measured with equilibrium dialysis, and Vu,brain is the unbound volume of distribution in brain measured with the brain slice technique. (13) Kp,uu,brain=Kp,brain/fu,plasma×Vu,brain

[2] = system: astrocytes differentiated from human neural stem cells; conditions: 500 nM, 5 h, 37 °C
Protocol: (§1) Human neural stem cells (hNSCs) derived from human embryonic stem cells (hESCs) were differentiated to neurons or astrocytes. […] Cells were allowed to differentiate into desired lineage for three weeks before the addition of peptides. The peptides were individually added to 2 mL Neurobasal medium to a final concentration of 500 nM and incubated at 37 °C for 5 h. The medium was removed, and the cells were subsequently lysed using 300 µL of Pierce™ lysis buffer (ThermoFisher Scientific Cat. No. 87787) per well. Samples were kept at −20 °C pending analysis. The uptake of peptides was determined using the total cellular-to-unbound medium concentrations ratio, Kp,u,cell (mL/g total protein), according to Equation (11). (11) Kp,u,cell=Ccell/Cu,medium=Acell/Vcell/Cu,medium where Acell (nanomoles per g total protein) is the total amount of peptide in the cell lysate normalized by the total protein content and estimated volume of the cells. Total protein concentration (mg/mL) in the cell lysate was determined using a NanoDrop 2000C (ThermoFisher, Waltham, MA, USA) by measuring the absorbance at 280 nm. Vcell was estimated using the value of 6.5 µL/mg protein by analogy of HEK293 cells. […] The parameter Kp,u,cell (mL per g of total protein at 5 h) is a partition coefficient between the buffer and the cell culture, where the fraction in the buffer has no binding, but the measured concentration in the cells is a composite of both uptake into the cells and binding to both the cell surface and intra-cellular components. This parameter is thereby similar to Vu,brain as it also gives a description of both binding and uptake processes.
(§2) For estimation of the extent of transport across the cellular membrane, the unbound intracellular-to-extracellular ratio, Kp,uu,cell was calculated as described below:(12) Kp,uu,cell=Kp,u,cell×fu,cell

[3] = system: neurons differentiated from human neural stem cells; conditions: for Total neuronal cell-to-unbound medium concentration ratio, Kp,u,cell,N: neurons, 500 nM, 5 h, 37 °C
Protocol: as §1, §2

[4] = Simulation of unbound brain exposure (two-compartment model, Berkeley Madonna); parameters: species or system rat; conditions: parameter used in simulation; for clearance: read-out: Systemic clearance, CL (converted); for Vd: rat
Protocol: The simulation was performed at given initial total plasma concentration to be equal to steady-state concentrations obtained in the neuroPK study (Table 2), utilizing the parameters listed in Supplementary Material Table S3. A two-compartment model consisting of blood and brain compartments with a focus on unbound concentrations was characterized (Supplementary Material Figure S1 describes the structure of the model and the codes).

plasma proteins = conditions: undiluted rat plasma, 1 µM, equilibrium dialysis 6 h 37 °C
Protocol: Peptide binding to plasma proteins, brain tissue homogenate, and lung tissue homogenate as well as to neuronal and astrocyte cell culture homogenates was investigated using equilibrium dialysis [47]. Undiluted plasma and brain from three peptide-naïve rats were used in the experiment. The brain homogenate was prepared by homogenizing 1 part brain with 4 parts of phosphate-buffered saline (PBS, pH 7.4). […] Semi-permeable membranes with a molecular weight cut-off of 12–14 kDa were used and placed in an HTD96b apparatus (HTDialysis, Gales Ferry, CT, USA). The undiluted plasma and respective homogenates were spiked with individual peptide to a concentration of 1 µM and were dialyzed against PBS (pH 7.4). Five technical replicates were prepared per biological replicate. The experiment was run for 6 h at 37 °C in a MaxQ4450 shaker (Thermo Fisher Scientific, NinoLab, Sweden) at 200 rpm. […] Aliquots (80 µL) were taken from the buffer and plasma/homogenate sides. To compensate for any differences in matrix during bioanalysis, the plasma and homogenate samples were mixed with equal volumes of blank buffer, and the buffer samples were mixed with an equal volume of relevant blank plasma/homogenate. Spiked plasma and respective homogenate samples were incubated to control for relative recovery and thermal stability of the peptides in respective matrices.
The unbound fraction in undiluted plasma was calculated using Equation (5), where Cbuffer is the unbound concentration of peptide in the buffer and Cplasma is the total concentration of peptide in plasma at 6 h. The binding of peptide in various homogenates was assessed in two steps. First, the fraction of unbound peptide in the diluted homogenate, fu,h,D, was calculated using Equation (6), where Chomogenate is the total concentration of peptide in respective homogenate at 6 h. Second, the correction for the dilution was implemented as described in Equation (7), where D is the dilution factor used in the preparation [47]. D was 5 for brain and lung homogenates and on average 35.3 for the cell culture studies, as determined based on the total protein content and the total volume of lysate. (5) fu,plasma=Cbuffer/Cplasma (6) fu,h,D=Cbuffer/Chomogenate (7) fu,tissue/cell=1/D/((1/fu,h,D )−1)+1/D

[5] = brain tissue homogenate, equilibrium dialysis
[6] = rat weight 0.3 kg, read-out: Apparent volume of distribution, Vd
[7] = read-out: Apparent volume of distribution unbound, Vd,u

| SMILES | Half-life, t½ (in vivo; plasma) [min] | Kp at 4 h [1] | Kp uu [1] | Kp,uu,brain as percent equilibrating across the BBB [1] [%] | Total brain-to-plasma concentration ratio, Kp,brain [1] | Unbound brain-to-plasma concentration ratio, Kp,uu,brain [1] | Total steady-state plasma concentration, Cplasma,ss [1] [nmol/L] | Total astrocyte cell-to-unbound medium concentration ratio, Kp,u,cell,A [2] | Total neuronal cell-to-unbound medium concentration ratio, Kp,u,cell,N [3] [mL/g total protein] | clearance ([4]; rat weight 0.3 kg) [mL/min] | Vd [4, 6] [L] | Vd [4, 7] [L] | Fraction unbound in plasma, fu,plasma (plasma proteins) | also measured |
| --- | --- | --- | --- | --- | --- | --- | --- | --- | --- | --- | --- | --- | --- | --- |
| CC(C)C[C@@H]1NC(=O)CNC(=O)[C@H](CC(N)=O)NC(=O)[C@H](CCCNC(=N)N)NC(=O)[C@H]([C@@H](C)O)NC(=O)[C@@H]2CSSC[C@@H]3NC(=O)[C@H]([C@@H](C)O)NC(=O)CNC(=O)CNC(=O)[C@H](C(C)C)NC(=O)[C@@H]4CSSC[C@H](NC(=O)[C@H]([C@@H](C)O)NC(=O)[C@H](CSSC[C@H](NC(=O)[C@H](C(C)C)NC(=O)[C@@H]5CCCN5C1=O)C(=O)NCC(=O)N[C@@H](CCC(=O)O)C(=O)N[C@@H]([C@@H](C)O)C(=O)N4)NC(=O)CNC(=O)[C@@H]1CCCN1C(=O)[C@H]([C@@H](C)O)NC(=O)[C@H](CC(N)=O)NC3=O)C(=O)N[C@@H](CO)C(=O)N[C@@H](Cc1c[nH]c3ccccc13)C(=O)N1CCC[C@H]1C(=O)N[C@@H](C(C)C)C(=O)N2 [Kalata B1] | 35.8 ± 3.52 | 0.23 | 0.005 | 0.5 | 0.234 ± 0.083 | 0.00479 ± 0.0023 | 1096 | 94.73 ± 3.08 mL/g total protein | 135.35 ± 21.2 | 0.48 | 0.0966 | 0.029 | 0.299 ± 0.095 | AUC(0-inf) (in vivo; in vivo): 2800 ng·h/mL; Vd (in vivo; in vivo): 0.322 ± 0.0887 L/kg; clearance (in vivo; in vivo): 1.6 ± 0.396 mL/min/kg; half-life (in vivo; in vivo, plasma): 35 min; Bound to brain tissue constituents (in vitro; [5]): 93%; fraction unbound (in vitro; rat, brain homogenate): 0.0639 ± 0.0072; Total astrocyte cell-to-unbound medium concentration ratio, Kp,u,cell,A ([2]; listed as kalata B1): 94.7 mL/g total protein; Relative reduction of Kp,uu,cell in cell culture versus tissue slice experiments ([3]; neuron and astrocyte cultures vs brain slices): ca. 3 fold; Difference between Kp,u,cell (neurons, astrocytes) and Vu,brain (brain slice assay) ([3]; neurons and astrocytes vs brain slices): less than 2 fold |
| CC[C@H](C)[C@@H]1NC(=O)[C@@H]2CCCN2C(=O)[C@@H]2CCCN2C(=O)[C@H]([C@@H](C)CC)NC(=O)[C@H](CO)NC(=O)[C@H](CCCCN)NC(=O)[C@H]([C@@H](C)O)NC(=O)[C@@H]2CSSC[C@H](NC1=O)C(=O)N[C@@H](Cc1ccccc1)C(=O)N1CCC[C@H]1C(=O)N[C@@H](CC(=O)O)C(=O)NCC(=O)N[C@@H](CCCNC(=N)N)C(=O)N2 [SFTI-1, sunflower trypsin inhibitor-1] | 20.3 ± 3.50 | 0.06 | 0.13 | 13 | 0.0618 ± 0.0318 | 0.129 ± 0.0698 | 400 | 19.0 mL/g total protein and 19.02 ± 4.34 mL/g total protein | 31.11 ± 12.46 | 0.545 | 0.0573 | 0.054 | 0.936 ± 0.038 | Total plasma concentration post 120 min time point (below the quantification limit) (in vivo; 10 min infusion 0.5 mg/kg): < 5 ng/mL; AUC(0-inf) (in vivo; plasma): 1290 ng·h/mL; Vd (in vivo; plasma): 0.191 ± 0.0344 L/kg; clearance (in vivo; plasma): 1.82 ± 0.48 mL/min/kg; half-life (in vivo; plasma): 20 min; Brain tissue binding (in words) (in vitro; [5]): almost no brain tissue-binding capacity; fraction unbound at 6 h, 1 µM (in vitro; rat, brain homogenate (1 part brain with 4 parts PBS), pH 7.4): 0.951 ± 0.115; Kp,u,cell fold lower than for kalata B1 ([3]; neurons and astrocytes): up to 5 fold; CLin [4]: 0.0017 L/h; CLout [4]: 0.01317 L/h; Systemic clearance unbound, CLu [4]: 0.0307 L/h; Total steady-state plasma concentration, Cplasma,ss [4]: 0.6052 mg/L; Unbound steady-state plasma concentration, Cplasma,u,ss [4]: 0.5665 mg/L |
